Assay results from PubChem BioAssay AID1963432 (Molecular Pharmacology Branch, DTP, NCI, 2024).

Tested on: SYO-1 complex spheroid growth, percent test/control
Experiment: Anticancer human tumor SYO-1 cell line growth inhibition [Asc];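 note: compound exposure lasted 7 days after spheroids grew 3 days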;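 for viability, T/C: 100% = DMSO vehicle control viability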
Details: for IC50: curve of first compound; for viability, T/C: stronger effect = lower value
Description: Multicellular complex tumor spheroid response to apoptosis pathway targeting inhibitors Alrizomadlin, Pelcitoclax, and Dasminapant in combination with a variety of drugs and investigational agents in selected tumor cell lines
The MDM2 inhibitor alrizomadlin, the Bcl-2/Bcl-xL inhibitor pelcitoclax, and the IAPs inhibitor dasminapant were evaluated both individually and in combination with standard of care and investigational anticancer small molecules within a complex spheroid model of solid tumors. . Complex spheroids include a stromal component modeled by human endothelial cells (HUVEC) and fibroblasts modeled by human mesenchymal stem cells (MSCs). The concentration ranges selected for each drug and investigational agent were based upon clinically achievable concentrations if the clinical Cmax of the agent was known.
Compounds. The drugs and investigational agents: alrizomadlin (APG-115; NSC831270), pelcitoclax (APG-1252; NSC835773), dasminapant (APG-1387;NSC834197), TAK-243 (NSC785004), copanlisib (NSC809693), olaparib (NSC753686), talazoparib (NSC767125), cobimetinib (NSC 768068), eltanexor (KPT-8602, NSC 794443), abemaciclib (NSC 768073), sotorasib (NSC818433), adagrasib (NSC 831453), MRTX-1133 (NSC 836407), Iadademestat (ORY1001, NSC 806812), and RMC-4630 (NSC839698), were obtained from the NCI Developmental Therapeutics Program Chemical Repository. The FDA-approved anticancer drug set is available from the Developmental Therapeutics Program at https://dtp.cancer.gov/organization/dscb/obtaining/available plates.htm. […] The stock solutions were prepared in dimethyl sulfoxide (DMSO, Sigma-Aldrich, St. Louis, MO, cat. D2650) at 800-fold the tested concentration and stored at -70 degrees C prior to their use. All drugs and investigational agents were tested over a range starting from a high concentration at or near the clinical Cmax and decreasing in half-log increments. If the clinical Cmax for an agent had not been determined, the highest concentration tested was 10 microM.
The patient-derived cancer (PDC) cell lines include five colon adenocarcinomas: 186277-243-T-J2-PDC, 616215-338-R-J1-PDC, 439559-082-T-J2-PDC, 463943-066-T-J2-PDC, and 519858-162-T-J1-PDC; three pancreatic carcinomas: 323965-272-R-J2-PDC, 521955-158-R6-J3-PDC, and 521955-158-R2-J5-PDC; two uterine sarcomas: 327498-152-R-J2-PDC and 993429-296-R-J1-PDC; two rhabdomyosarcomas: 755483-174-R-J1-PDC and 772245-204-R-J1-PDC; two soft tissue sarcomas: 126254-015-R-J1-PDC and 494315-158-R-J1-PDC; two malignant fibrous histiocytomas: 317291-083-R-J1-PDC and 596521-263-R-J1-PDC; two breast carcinomas: 171881-019-R-J1-PDC and 885512-296-R-J2-PDC; and one ovarian carcinoma: 6556581-035-R-J-PDC were obtained from the NCI PDMR, (https://pdmr.cancer.gov). The established cell lines HSSY-2 synovial sarcoma (RRID:CVCL 8719), SYO-1 synovial sarcoma (RRID:CVCL_7146), MPNST malignant peripheral neural sheath tumor were obtained from the Sloan Kettering Institute. The following established cell lines were purchased from the American Type Culture Collection (ATCC, Manassas, VA), Sor the received from the NCI repository:, PANC-1 pancreatic carcinoma (CRL-1469, RRID:CVCL_0480), OVCAR-5 ovarian carcinoma (RRID:CVCL_1628), OVCAR-8 ovarian carcinoma (RRID:CVCL_1629), , MCF-7 breast carcinoma (CRL-12584, RRID:CVCL_0031), MDA-MB-231 breast carcinoma (CRL-12532, RRID:CVCL_0062), NCI-H1876 small cell lung carcinoma (CRL-5902, RRID:CVCL_1503), NCI-H510A small cell lung carcinoma (HTB-184, RRID:CVCL_1565), NCI-H1417 (CRL-5869, RRID:CVCL_1469), and NCI-H196 small cell lung carcinoma (CRL-5823, RRID:CVCL_1509). Dr. Peter Houghton (Greehey Children's Cancer Research Institute, University of Texas Health Science Center, San Antonio, TX) provided Rh-18 rhabdomyosarcoma (RRID:CVCL_1659). Pooled donor human umbilical vein endothelial cells (HUVEC, Lonza, cat. CC-2519) and human mesenchymal stem cells (hMSC, Lonza, cat. PT-2501) were purchased from Lonza (Walkersville, MD).
Cell Culture. […]

For `O=C(c1cc(Cc2n[nH]c(=O)c3ccccc23)ccc1F)N1CCN(C(=O)C2CC2)CC1` + CCN1C(C(=O)NC23CCC(C(=O)O)(CC2)CC3)C(c2cccc(Cl)c2F)C2(C(=O)Nc3cc(Cl)ccc32)C12CCCCC2, the IC50 (second compound 0.00949 µM) was 1840 nM, the IC50 (second compound 0.03 µM) was 1130 nM and the IC50 (second compound 0.0949 µM) was 155 nM. For the same molecule, the IC50 (second compound 0.3 µM) was less than 31.6 nM, the IC50 (second compound 0.949 µM) was less than 31.6 nM and the IC50 (second compound 3 µM) was less than 31.6 nM. The viability, T/C (second compound 0.00949 µM, first compound 0.0316 µM) was 104%, the viability, T/C (second compound 0.00949 µM, first compound 0.1 µM) was 93.4% and the viability, T/C (second compound 0.00949 µM, first compound 0.316 µM) was 99.4%. For the same molecule, the viability, T/C (second compound 0.00949 µM, first compound 1 µM) was 92%, the viability, T/C (second compound 0.00949 µM, first compound 3.16 µM) was 12.9% and the viability, T/C (second compound 0.00949 µM, first compound 10 µM) was 4.28%. For the same molecule, the viability, T/C (second compound 0.03 µM, first compound 0.0316 µM) was 102%, the viability, T/C (second compound 0.03 µM, first compound 0.1 µM) was 89.3% and the viability, T/C (second compound 0.03 µM, first compound 0.316 µM) was 92.4%. The viability, T/C (second compound 0.03 µM, first compound 1 µM) was 55.2%, the viability, T/C (second compound 0.03 µM, first compound 3.16 µM) was 6.53% and the viability, T/C (second compound 0.03 µM, first compound 10 µM) was 4.33%. It also gave a viability, T/C (second compound 0.0949 µM, first compound 0.0316 µM) of 71.7%, a viability, T/C (second compound 0.0949 µM, first compound 0.1 µM) of 54.1% and a viability, T/C (second compound 0.0949 µM, first compound 0.316 µM) of 40.9%. The viability, T/C (second compound 0.0949 µM, first compound 1 µM) was 12.4%, the viability, T/C (second compound 0.0949 µM, first compound 3.16 µM) was 4.71% and the viability, T/C (second compound 0.0949 µM, first compound 10 µM) was 3.12%. For the same molecule, the viability, T/C (second compound 0.3 µM, first compound 0.0316 µM) was 9.88%, the viability, T/C (second compound 0.3 µM, first compound 0.1 µM) was 9.34% and the viability, T/C (second compound 0.3 µM, first compound 0.316 µM) was 8.44%. For the same molecule, the viability, T/C (second compound 0.3 µM, first compound 1 µM) was 4.25%, the viability, T/C (second compound 0.3 µM, first compound 3.16 µM) was 4.23% and the viability, T/C (second compound 0.3 µM, first compound 10 µM) was 2.9%. It also gave a viability, T/C (second compound 0.949 µM, first compound 0.0316 µM) of 1.89%, a viability, T/C (second compound 0.949 µM, first compound 0.1 µM) of 1.57% and a viability, T/C (second compound 0.949 µM, first compound 0.316 µM) of 3.08%. For the same molecule, the viability, T/C (second compound 0.949 µM, first compound 1 µM) was 2.92%, the viability, T/C (second compound 0.949 µM, first compound 3.16 µM) was 2.34% and the viability, T/C (second compound 0.949 µM, first compound 10 µM) was 1.51%. For the same molecule, the viability, T/C (second compound 3 µM, first compound 0.0316 µM) was 1.11%, the viability, T/C (second compound 3 µM, first compound 0.1 µM) was 1.24% and the viability, T/C (second compound 3 µM, first compound 0.316 µM) was 2.68%. For the same molecule, the viability, T/C (second compound 3 µM, first compound 1 µM) was 1.1%, the viability, T/C (second compound 3 µM, first compound 3.16 µM) was 1.22% and the viability, T/C (second compound 3 µM, first compound 10 µM) was 1%.
